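1) Cells in 96-well plates. 2) Compound, 48 h, 5 concentrations. 3) Linear interpolation between surrounding doses. 4) Unreached endpoint = highest concentration. At the GI50, growth is halved.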 Activity calls are given as the source filed them. Rule as the data show it: active = GI50 up to about 1.1 µM and inactive = higher.
Assays:
Assay in all cases: DTP human tumour cell line panel, 48 h
LXFL 529 = tested on: LXFL 529
XF498 = tested on: XF498
KM-20L2 = tested on: KM-20L2
RXF 631 = tested on: RXF 631
M19-MEL = tested on: M19-MEL
HOP-18 = tested on: HOP-18
DMS-114 = tested on: DMS-114
DMS-273 = tested on: DMS-273
SNB-78 = tested on: SNB-78

| Structure (SMILES) | GI50 (LXFL 529) | GI50 (XF498) | GI50 (KM-20L2) | GI50 (RXF 631) | GI50 (M19-MEL) | GI50 (HOP-18) | GI50 (DMS-114) | GI50 (DMS-273) | GI50 (SNB-78) |
| --- | --- | --- | --- | --- | --- | --- | --- | --- | --- |
| Cn1c2c(c3ccccc31)CCN(CCCN1CCN(c3cccc(Cl)c3)CC1)C2=O | 16.2 µM (inactive) | 10.4 µM (inactive) | 2.87 µM (inactive) | 24.7 µM (inactive) | 20.2 µM (inactive) | 22.9 µM (inactive) | 14.2 µM (inactive) | 24.1 µM (inactive) | – |
| CC(C)=CC(=O)Cc1nc2cc(C)c(C)cc2[nH]c1=O | > 100 µM (inactive) | – | > 100 µM (inactive) | > 100 µM (inactive) | > 100 µM (inactive) | > 100 µM (inactive) | – | > 100 µM (inactive) | > 100 µM (inactive) |
| COC(=O)c1cc(OC(C)=O)c2c(OC)ccc(OC)c2c1 | > 100 µM (inactive) | > 100 µM (inactive) | > 100 µM (inactive) | – | > 100 µM (inactive) | – | > 100 µM (inactive) | > 100 µM (inactive) | > 100 µM (inactive) |
| CCOC(=O)NC(=O)c1cn(CCN2CCN(C(=O)CCCCCCCCCCNc3ncnc4c3ncn4C3OC(CO)C(O)C3O)CC2)c(=O)[nH]c1=O (stereo unspecified) | > 100 µM (inactive) | > 100 µM (inactive) | > 100 µM (inactive) | > 100 µM (inactive) | – | – | > 100 µM (inactive) | – | > 100 µM (inactive) |
| OCCCCn1cnc2c(O)ncnc21 | > 100 µM (inactive) | – | > 100 µM (inactive) | – | > 100 µM (inactive) | > 100 µM (inactive) | > 100 µM (inactive) | – | > 100 µM (inactive) |
| CCOC(=O)Cn1c(=O)n(C)c(=O)c2c1ncn2Cc1ccccc1 | > 100 µM (inactive) | 98.2 µM (inactive) | > 100 µM (inactive) | – | > 100 µM (inactive) | – | > 100 µM (inactive) | > 100 µM (inactive) | > 100 µM (inactive) |
| CSc1nc2nc(C(O)C(O)C(O)CO)cnc2c(=O)[nH]1 (stereo unspecified) | > 100 µM (inactive) | > 100 µM (inactive) | > 100 µM (inactive) | – | > 100 µM (inactive) | – | > 100 µM (inactive) | > 100 µM (inactive) | > 100 µM (inactive) |
| CC(=O)NNc1nc(C)c(C(/C=C/c2ccc(Cl)cc2)=N/NC(=S)NN)s1 | > 100 µM (inactive) | > 100 µM (inactive) | > 100 µM (inactive) | > 100 µM (inactive) | > 100 µM (inactive) | > 100 µM (inactive) | > 100 µM (inactive) | > 100 µM (inactive) | > 100 µM (inactive) |
| CN(C)/N=N/c1ccc(C(N)=O)cc1 | > 100 µM (inactive) | > 100 µM (inactive) | > 100 µM (inactive) | – | > 100 µM (inactive) | > 100 µM (inactive) | > 100 µM (inactive) | > 100 µM (inactive) | > 100 µM (inactive) |
| CC1=NN(C(=O)c2ccc(Cl)cc2)C(=O)/C1=C/c1ccc(Cl)cc1 | > 100 µM (inactive) | > 100 µM (inactive) | > 100 µM (inactive) | – | > 100 µM (inactive) | – | > 100 µM (inactive) | – | 40.8 µM (inactive) |
| CC1=NN(C(=O)c2ccccc2O)C(=O)/C1=C/c1cccc([N+](=O)[O-])c1 | 0.451 µM (active) | – | 15.6 µM (inactive) | – | – | – | 1.66 µM (inactive) | – | > 100 µM (inactive) |
| O=C1CCN(CCC(F)(F)C(F)(F)C(F)(F)C(F)(F)F)C(=S)N1 | > 100 µM (inactive) | > 100 µM (inactive) | > 100 µM (inactive) | – | > 100 µM (inactive) | – | > 100 µM (inactive) | > 100 µM (inactive) | > 100 µM (inactive) |
| COc1ccc(/C=N\O[Si](C)(C)C(C)(C)C)cc1O[Si](C)(C)C(C)(C)C | 16.1 µM (inactive) | 18.4 µM (inactive) | 28.8 µM (inactive) | 21.1 µM (inactive) | 18.2 µM (inactive) | 15.3 µM (inactive) | 18.5 µM (inactive) | 19.3 µM (inactive) | 19.3 µM (inactive) |
| CC(C)=Cc1cc(C(=O)NCCNC(=O)c2cc(C=C(C)C)nc(NC#N)n2)nc(NC#N)n1 | > 100 µM (inactive) | > 100 µM (inactive) | > 100 µM (inactive) | – | > 100 µM (inactive) | > 100 µM (inactive) | > 100 µM (inactive) | – | – |
| CC1OC(=O)N(CCCC=C2SCCCS2)C1=O (stereo unspecified) | > 100 µM (inactive) | > 100 µM (inactive) | > 100 µM (inactive) | – | > 100 µM (inactive) | > 100 µM (inactive) | > 100 µM (inactive) | > 100 µM (inactive) | > 100 µM (inactive) |
| CC(Oc1ccc(OCC2CCCCC2)cc1)C(=O)NCCO (stereo unspecified) | > 100 µM (inactive) | – | – | – | > 100 µM (inactive) | > 100 µM (inactive) | 39.8 µM (inactive) | > 100 µM (inactive) | > 100 µM (inactive) |
| CCN(CC)CCNC(=O)c1cccc2nc3ccccc3nc12 | 16.9 µM (inactive) | – | 13.6 µM (inactive) | – | – | > 26.4 µM (inactive) | 7.85 µM (inactive) | 7.26 µM (inactive) | 21.4 µM (inactive) |
| O=C(CCc1n[nH]c(=S)o1)Nc1ccccc1C(F)(F)F | > 100 µM (inactive) | – | > 100 µM (inactive) | > 100 µM (inactive) | > 100 µM (inactive) | > 100 µM (inactive) | > 100 µM (inactive) | > 100 µM (inactive) | > 100 µM (inactive) |
| COc1ccc([C@@H]2CC(=O)N2)cc1 | > 100 µM (inactive) | > 100 µM (inactive) | > 100 µM (inactive) | – | – | > 100 µM (inactive) | > 100 µM (inactive) | > 100 µM (inactive) | > 100 µM (inactive) |
| CC(C)C(Sc1nc(-c2ccccc2)c(-c2ccccc2)[nH]1)C(=O)NN (stereo unspecified) | > 100 µM (inactive) | 72.8 µM (inactive) | > 100 µM (inactive) | – | > 100 µM (inactive) | – | 99.8 µM (inactive) | > 100 µM (inactive) | > 100 µM (inactive) |
| C=C(C)[C@@H]1CC=C(CO)CC1 [PERILLYL ALCOHOL] | 668 µM (inactive) | 123 µM (inactive) | 265 µM (inactive) | 565 µM (inactive) | 182 µM (inactive) | – | 124 µM (inactive) | – | 200 µM (inactive) |
| O=c1c2cccc3cccc(c4n1CCCN=4)c32 | > 100 µM (inactive) | > 100 µM (inactive) | > 100 µM (inactive) | > 100 µM (inactive) | > 100 µM (inactive) | > 100 µM (inactive) | > 100 µM (inactive) | > 100 µM (inactive) | > 100 µM (inactive) |
| COc1cc(C(=O)Nc2cccc3ccccc23)c(Br)c(OC)c1OC | 31.1 µM (inactive) | – | > 100 µM (inactive) | > 100 µM (inactive) | 58.6 µM (inactive) | 4.33 µM (inactive) | 30.7 µM (inactive) | – | – |
| CN(C)CC1CCC(CN(C)C)C(=O)C1=O (stereo unspecified) | 1.67 µM (inactive) | 2.54 µM (inactive) | 16.4 µM (inactive) | – | 19 µM (inactive) | 1.5 µM (inactive) | 6.62 µM (inactive) | 15.8 µM (inactive) | – |
| CCOC(=O)C(/C(=N/NC(=O)OC)C(=O)Nc1ccc(C(C)=O)cc1)c1cnc2ccccc2n1 (stereo unspecified) | > 100 µM (inactive) | > 100 µM (inactive) | > 100 µM (inactive) | > 100 µM (inactive) | > 100 µM (inactive) | > 100 µM (inactive) | > 100 µM (inactive) | – | > 100 µM (inactive) |
| COC(=O)/C(=N\NC(N)=S)C(C(=O)OC)C(=O)C(=O)Nc1ccc(C)cc1 (stereo unspecified) | > 100 µM (inactive) | > 100 µM (inactive) | > 100 µM (inactive) | > 100 µM (inactive) | > 100 µM (inactive) | > 100 µM (inactive) | > 100 µM (inactive) | > 100 µM (inactive) | > 100 µM (inactive) |
| Cc1ccc(C2=C(c3ccccc3)C(=O)C(c3ccccc3)=C2c2ccc(C)cc2)cc1 | 68.7 µM (inactive) | 35.3 µM (inactive) | 45.8 µM (inactive) | – | 41.1 µM (inactive) | > 100 µM (inactive) | – | – | 31.6 µM (inactive) |

From ChEMBL document CHEMBL1201862, “PubChem BioAssay data set” (2004)
